Laboratory results reported in patent US20240368169A1 (priority 2021, published 2024).

Assays:
[1] = target: recombinant poly(ADP-ribose) polymerase 1 (PARP1) (Homo sapiens, UniProt P09874); experiment: biochemical; details: inhibition of PARP1 enzyme activity, chemiluminescence
[2] = target: recombinant poly(ADP-ribose) polymerase 2 (PARP2) (Homo sapiens, UniProt Q9UGN5); experiment: biochemical; details: inhibition of PARP2 enzyme activity, chemiluminescence
MDA-MB-436 cells = experiment: Growth inhibition assay against BRCA mutant human breast cancer MDA-MB-436 cell line (CCK-8, 7 days); type: cell-based

Sequence of recombinant poly(ADP-ribose) polymerase 1 (PARP1) (P09874 whole entry): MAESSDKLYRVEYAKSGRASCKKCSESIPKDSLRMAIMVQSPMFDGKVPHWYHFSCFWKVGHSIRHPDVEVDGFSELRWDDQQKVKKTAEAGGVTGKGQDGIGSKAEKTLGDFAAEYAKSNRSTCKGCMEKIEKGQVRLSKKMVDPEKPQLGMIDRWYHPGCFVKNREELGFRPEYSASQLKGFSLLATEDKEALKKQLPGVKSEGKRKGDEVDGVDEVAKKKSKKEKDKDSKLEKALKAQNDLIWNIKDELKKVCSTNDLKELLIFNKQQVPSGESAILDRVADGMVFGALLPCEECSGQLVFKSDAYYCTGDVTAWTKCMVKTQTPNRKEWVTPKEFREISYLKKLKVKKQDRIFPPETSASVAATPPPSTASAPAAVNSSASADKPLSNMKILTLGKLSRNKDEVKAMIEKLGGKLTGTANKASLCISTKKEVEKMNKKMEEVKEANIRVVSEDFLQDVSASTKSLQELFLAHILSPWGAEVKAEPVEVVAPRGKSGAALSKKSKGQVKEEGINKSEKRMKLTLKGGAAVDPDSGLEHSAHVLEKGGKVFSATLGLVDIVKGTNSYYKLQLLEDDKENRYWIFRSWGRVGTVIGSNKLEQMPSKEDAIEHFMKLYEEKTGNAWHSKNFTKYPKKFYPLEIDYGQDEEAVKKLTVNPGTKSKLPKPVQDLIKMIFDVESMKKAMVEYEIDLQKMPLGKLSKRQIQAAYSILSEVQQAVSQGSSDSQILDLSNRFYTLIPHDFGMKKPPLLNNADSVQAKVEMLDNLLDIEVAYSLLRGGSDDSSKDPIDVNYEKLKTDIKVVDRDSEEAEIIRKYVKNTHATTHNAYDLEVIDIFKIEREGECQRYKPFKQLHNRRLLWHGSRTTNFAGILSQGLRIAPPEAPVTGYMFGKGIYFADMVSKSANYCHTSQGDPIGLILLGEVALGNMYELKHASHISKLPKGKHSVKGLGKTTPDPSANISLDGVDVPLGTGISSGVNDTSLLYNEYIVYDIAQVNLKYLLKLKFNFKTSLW
Sequence of recombinant poly(ADP-ribose) polymerase 2 (PARP2) (Q9UGN5 whole entry): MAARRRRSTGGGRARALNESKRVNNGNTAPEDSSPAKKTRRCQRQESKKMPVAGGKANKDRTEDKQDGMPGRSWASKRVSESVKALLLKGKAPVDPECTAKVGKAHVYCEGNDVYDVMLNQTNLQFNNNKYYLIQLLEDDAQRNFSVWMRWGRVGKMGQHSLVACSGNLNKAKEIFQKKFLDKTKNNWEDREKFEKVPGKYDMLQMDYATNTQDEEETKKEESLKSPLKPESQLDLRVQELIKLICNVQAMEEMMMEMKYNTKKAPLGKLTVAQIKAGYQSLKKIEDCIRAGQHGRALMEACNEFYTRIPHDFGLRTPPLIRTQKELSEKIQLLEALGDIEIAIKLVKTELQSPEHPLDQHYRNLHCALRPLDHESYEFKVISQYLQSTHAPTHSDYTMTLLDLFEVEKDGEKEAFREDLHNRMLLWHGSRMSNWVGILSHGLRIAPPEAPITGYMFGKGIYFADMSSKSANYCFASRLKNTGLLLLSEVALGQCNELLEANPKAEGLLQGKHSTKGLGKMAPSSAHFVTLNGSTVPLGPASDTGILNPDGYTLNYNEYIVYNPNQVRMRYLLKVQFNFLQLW

SMILES: CNC(=O)c1ccc(N2CCN(Cc3ccc4c5c(c(=O)[nH]c4c3)COC5)CC2)c(F)n1 [Example 2, 7-((4-(2-fluoro-6-(methylcarbamoyl)pyridin-3-yl)piperazin-1-yl)methyl)-3,5-dihydrofuro[3,4-c]quinolin-4(1H)-one]
- IC50 [1]: 1.91 nM
- IC50 [2]: 128 nM
- IC50 (MDA-MB-436 cells): 2.65 nM

SMILES: CCNC(=O)c1ccc(N2CCN(Cc3ccc4c5c(c(=O)[nH]c4c3)COC5)CC2)c(Cl)n1 [Example 6, 7-((4-(2-chloro-6-(ethylcarbamoyl)pyridin-3-yl)piperazin-1-yl)methyl)-3,5-dihydrofuro[3,4-c]quinolin-4(1H)-one]
- IC50 [1]: 1.86 nM
- IC50 (MDA-MB-436 cells): 17.7 nM

SMILES: CCNC(=O)c1ccc(N2CCN(Cc3ccc4c5c(c(=O)[nH]c4c3)COC5)CC2)c(C)n1 [Example 7, 7-((4-(2-methyl-6-(ethylcarbamoyl)pyridin-3-yl)piperazin-1-yl)methyl)-3,5-dihydrofuro[3,4-c]quinolin-4(1H)-one]
- IC50 [1]: 1.9 nM
- IC50 (MDA-MB-436 cells): 4.36 nM

SMILES: CNC(=O)c1ccc(N2CCN(Cc3ccc4c5c(c(=O)[nH]c4c3)CCC5)CC2)c(Cl)n1 [Example 16, 7-((4-(2-chloro-6-(methylcarbamoyl)pyridin-3-yl)piperazin-1-yl)methyl)-1,2,3,5-tetrahydro-4H-cyclopenta[c]quinolin-4-one]
- IC50 [1]: 1.99 nM
- IC50 (MDA-MB-436 cells): 1.71 nM

SMILES: CNC(=O)c1ccc(N2CCN(Cc3ccc4c(c3)[nH]c(=O)c3nccn34)CC2)c(C)n1 [Example 25, 7-((4-(2-methyl-6-(methylcarbamoyl)pyridin-3-yl)piperazin-1-yl)methyl)imidazo[1,2-a]quinoxalin-4(5H)-one]
- IC50 [1]: 1.93 nM
- IC50 (MDA-MB-436 cells): 44.9 nM

SMILES: CNC(=O)c1ccc(N2CCN(Cc3ccc4c(c3)[nH]c(=O)n3cncc43)CC2)c(C)n1 [Example 30, 8-((4-(2-methyl-6-(methylcarbamoyl)pyridin-3-yl)piperazin-1-yl)methyl)imidazo[1,5-c]quinazolin-5(6H)-one]
- IC50 [1]: 1.54 nM
- IC50 [2]: 2590 nM

SMILES: CNC(=O)c1ccc(N2CCN(Cc3cc(F)c4c(c3)[nH]c(=O)n3ccnc43)CC2)c(F)n1 [Example 53, 8-((4-(2-fluoro-6-(methylcarbamoyl)pyridin-3-yl)piperazin-1-yl)methyl)-10-fluoroimidazo[1,2-c]quinazolin-5(6H)-one]
- IC50 [1]: 2.34 nM
- IC50 [2]: 1950 nM

SMILES: CNC(=O)c1ccc(N2CCN(Cc3ccc4c(c3)[nH]c(=O)c3cscc34)CC2)c(C)n1 [Example 83, 7-((4-(2-methyl-6-(methylcarbamoyl)pyridin-3-yl)piperazin-1-yl)methyl)thieno[3,4-c]quinolin-4(5H)-one]
- IC50 [1]: 1.08 nM
- IC50 [2]: 18.3 nM

SMILES: CNC(=O)c1ccc(N2CCN(Cc3ccc4c(c3)[nH]c(=O)c3sccc34)CC2)c(C)n1 [Example 84, 7-((4-(2-methyl-6-(methylcarbamoyl)pyridin-3-yl)piperazin-1-yl)methyl)thieno[2,3-c]quinolin-4(5H)-one]
- IC50 [1]: 0.77 nM
- IC50 [2]: 10.1 nM

SMILES: CNC(=O)c1ccc(N2CCN(Cc3ccc4c(c3)[nH]c(=O)c3ccsc34)CC2)c(C)n1 [Example 85, 7-((4-(2-methyl-6-(methylcarbamoyl)pyridin-3-yl)piperazin-1-yl)methyl)thieno[3,2-c]quinolin-4(5H)-one]
- IC50 [1]: 1.52 nM
- IC50 [2]: 78 nM

SMILES: CNC(=O)c1ccc(N2CCN(Cc3cc(F)c4c(c3)[nH]c(=O)c3cscc34)CC2)c(C)n1 [Example 86, 7-((4-(2-methyl-6-(methylcarbamoyl)pyridin-3-yl)piperazin-1-yl)methyl)-9-fluorothieno[3,4-c]quinolin-4(5H)-one]
- IC50 [1]: 0.66 nM
- IC50 [2]: 13.3 nM

SMILES: CNC(=O)c1ccc(N2CCN(Cc3ccc4c(c3)[nH]c(=O)c3occc34)CC2)c(C)n1 [Example 104, 7-((4-(2-methyl-6-(methylcarbamoyl)pyridin-3-yl)piperazin-1-yl)methyl)furo[2,3-c]quinolin-4(5H)-one]
- IC50 [1]: 1.42 nM

SMILES: CNC(=O)c1ccc(N2CCN(Cc3ccc4c(c3)[nH]c(=O)c3cnn(C)c34)CC2)c(C)n1 [Example 105, 7-((4-(2-methyl-6-(methylcarbamoyl)pyridin-3-yl)piperazin-1-yl)methyl)-1-methyl-1,5-dihydro-4H-pyrazolo[4,3-c]quinolin-4-one]
- IC50 [2]: 910 nM

SMILES: CNC(=O)c1ccc(N2CCN(Cc3cc(F)c4c(c3)[nH]c(=O)c3occc34)CC2)c(F)n1 [Example 108, 7-((4-(2-fluoro-6-(methylcarbamoyl)pyridin-3-yl)piperazin-1-yl)methyl)-9-fluoro-furo[2,3-c]quinolin-4(5H)-one]
- IC50 [1]: 0.66 nM
- IC50 [2]: 353 nM

SMILES: CCNC(=O)c1ccc(N2CCN(Cc3ccc4c([nH]c(=O)c5ccnn54)c3F)CC2)c(F)n1 [Example 110, 7-((4-(2-fluoro-6-(ethylcarbamoyl)pyridin-3-yl)piperazin-1-yl)methyl)-6-fluoropyrazolo[1,5-a]quinoxalin-4(5H)-one]
- IC50 [1]: 1.95 nM
- IC50 [2]: 965 nM

SMILES: O=C(NC1CC1)c1ccc(N2CCN(Cc3ccc4c([nH]c(=O)c5ccnn54)c3F)CC2)c(F)n1 [Example 111, 7-((4-(2-fluoro-6-(cyclopropylcarbamoyl)pyridin-3-yl)piperazin-1-yl)methyl)-6-fluoropyrazolo[1,5-a]quinoxalin-4(5H)-one]
- IC50 [1]: 1.27 nM
- IC50 [2]: 455 nM

SMILES: CNC(=O)c1ccc(N2CCN(Cc3ccc4c([nH]c(=O)c5cc(Cl)nn54)c3F)CC2)c(F)n1 [Example 112, 7-((4-(2-fluoro-6-(methylcarbamoyl)pyridin-3-yl)piperazin-1-yl)methyl)-6-fluoro-2-chloropyrazolo[1,5-a]quinoxalin-4(5H)-one]
- IC50 [1]: 0.57 nM
- IC50 [2]: 223 nM

SMILES: CNC(=O)c1ccc(N2CCN(Cc3cc(F)c4c(c3)[nH]c(=O)n3ccnc43)CC2)c(F)n1 [Example 120]
- IC50 [2]: 1950 nM

SMILES: CNC(=O)c1ccc(N2CCN(Cc3ccc4c(c3)[nH]c(=O)c3c(C)c(C)nn34)CC2)c(F)n1 [Example 125, 7-((4-(2-fluoro-6-(methylcarbamoyl)pyridin-3-yl)piperazin-1-yl)methyl)-2,3-dimethylpyrazolo[1,5-a]quinoxalin-4(5H)-one]
- IC50 [1]: 1.05 nM
- IC50 [2]: 3.7 nM

SMILES: CNC(=O)c1ccc(N2CCN(Cc3cc(F)c4c(c3)[nH]c(=O)c3c(Cl)cnn34)CC2)c(C)n1 [Example 127, 7-((4-(2-methyl-6-(methylcarbamoyl)pyridin-3-yl)piperazin-1-yl)methyl)-3-chloro-9-fluoropyrazolo[1,5-a]quinoxalin-4(5H)-one]
- IC50 [1]: 0.85 nM
- IC50 [2]: 83 nM

SMILES: CNC(=O)c1ccc(N2CCN(Cc3ccc4c([nH]c(=O)c5ccnn54)c3C)CC2)c(C)n1 [Example 129, 7-((4-(2-methyl-6-(methylcarbamoyl)pyridin-3-yl)piperazin-1-yl)methyl)-6-methylpyrazolo[1,5-a]quinoxalin-4(5H)-one]
- IC50 [1]: 1.48 nM
- IC50 [2]: 369 nM

SMILES: CNC(=O)c1ccc(N2CCN(Cc3cc(F)c4c(c3)[nH]c(=O)n3cccc43)CC2)c(C)n1 [Example 131, 8-((4-(2-methyl-6-(methylcarbamoyl)pyridin-3-yl)piperazin-1-yl)methyl)-10-fluoropyrrolo[1,2-c]quinazolin-5(6H)-one]
- IC50 [1]: 0.78 nM
- IC50 [2]: 111 nM

SMILES: CNC(=O)c1ccc(N2CCN(Cc3ccc4c([nH]c(=O)c5ccnn54)c3C)CC2)c(F)n1 [Example 133, 7-((4-(2-fluoro-6-(methylcarbamoyl)pyridin-3-yl)piperazin-1-yl)methyl)-6-methylpyrazolo[1,5-a]quinoxalin-4(5H)-one]
- IC50 [1]: 1.5 nM
- IC50 [2]: 222 nM
